Assay results published in article PMC3220491 (The Journal of Biological Chemistry, 2011).
Changes are numbered by the printed parent chain.

Experiments:
Assay in all cases: SAT activity, acetyl-CoA decrease at […] nm
[1] = molecular target: T1, TgSAT-m (Noccaea goesingensis, UniProt Q6IWG0); type: biochemical
T1 sequence (Q6IWG0 1-395): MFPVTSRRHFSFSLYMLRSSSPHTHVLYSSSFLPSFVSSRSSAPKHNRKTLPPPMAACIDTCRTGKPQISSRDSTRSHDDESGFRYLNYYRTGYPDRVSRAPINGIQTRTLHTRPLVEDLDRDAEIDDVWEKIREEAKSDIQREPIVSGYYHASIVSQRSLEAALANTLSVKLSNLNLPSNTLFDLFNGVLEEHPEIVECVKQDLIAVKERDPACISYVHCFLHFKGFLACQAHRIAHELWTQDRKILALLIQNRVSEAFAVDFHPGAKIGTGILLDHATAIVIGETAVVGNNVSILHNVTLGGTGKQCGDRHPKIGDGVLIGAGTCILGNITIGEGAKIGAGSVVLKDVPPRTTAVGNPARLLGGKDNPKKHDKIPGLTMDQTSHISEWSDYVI

[2] = molecular target: T2, TgSAT-c (Noccaea goesingensis, UniProt Q6IWF8); type: biochemical
T2 sequence (Q6IWF8 1-311): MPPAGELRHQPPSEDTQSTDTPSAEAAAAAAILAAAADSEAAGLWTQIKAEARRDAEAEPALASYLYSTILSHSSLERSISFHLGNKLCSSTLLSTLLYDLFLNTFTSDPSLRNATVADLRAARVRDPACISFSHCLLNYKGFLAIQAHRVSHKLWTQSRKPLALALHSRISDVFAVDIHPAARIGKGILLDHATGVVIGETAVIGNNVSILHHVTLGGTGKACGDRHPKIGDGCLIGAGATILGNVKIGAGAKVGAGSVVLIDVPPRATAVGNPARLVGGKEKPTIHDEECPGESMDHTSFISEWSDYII

[3] = molecular target: T3, AtSAT-c (Arabidopsis thaliana, UniProt Q42538); type: biochemical
T3 sequence (Q42538 1-312): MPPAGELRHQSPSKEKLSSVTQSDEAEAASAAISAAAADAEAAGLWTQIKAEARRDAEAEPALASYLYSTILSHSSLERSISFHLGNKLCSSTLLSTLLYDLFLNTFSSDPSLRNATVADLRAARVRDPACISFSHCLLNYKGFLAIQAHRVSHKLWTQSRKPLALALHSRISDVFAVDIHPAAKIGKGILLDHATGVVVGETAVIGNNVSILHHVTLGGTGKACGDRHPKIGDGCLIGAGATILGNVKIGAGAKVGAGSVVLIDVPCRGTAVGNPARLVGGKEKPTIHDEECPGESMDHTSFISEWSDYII

[4] = molecular target: T4, AtSAT-c (Arabidopsis thaliana, UniProt Q42538, C268P); type: biochemical
T4 sequence (Q42538 1-312 C268P): T3 sequence (Q42538 1-312) with C268P

[5] = molecular target: T5, TgSAT-p (Noccaea goesingensis, UniProt Q6IWF9); type: biochemical
T5 sequence (Q6IWF9 1-319): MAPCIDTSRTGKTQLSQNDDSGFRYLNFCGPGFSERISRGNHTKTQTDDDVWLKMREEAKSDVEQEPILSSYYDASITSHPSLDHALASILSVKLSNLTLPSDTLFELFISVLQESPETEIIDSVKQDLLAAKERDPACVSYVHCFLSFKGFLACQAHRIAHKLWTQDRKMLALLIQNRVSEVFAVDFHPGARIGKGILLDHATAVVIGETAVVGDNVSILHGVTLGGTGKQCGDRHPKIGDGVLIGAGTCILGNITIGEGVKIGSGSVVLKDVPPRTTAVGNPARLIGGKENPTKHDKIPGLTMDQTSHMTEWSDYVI

[6] = molecular target: T6, AtSAT-c (Arabidopsis thaliana, UniProt Q42538, G270A); type: biochemical
T6 sequence (Q42538 1-312 G270A): T3 sequence (Q42538 1-312) with G270A

[7] = test system: At-N/Tg-C; type: biochemical, Arabidopsis thaliana; Noccaea goesingensis; conditions: 1 mM L-serine, 0.1 mM acetyl-CoA, 50 mM Tris-HCl pH 8.0, room temperature; feedback inhibition
[8] = molecular target: T7, AtSAT-c (Arabidopsis thaliana, UniProt Q42538, C268P/G270A); type: biochemical
T7 sequence (Q42538 1-312 C268P/G270A): T3 sequence (Q42538 1-312) with C268P, G270A

[9] = test system: Tg-N/At-C; type: biochemical, Noccaea goesingensis; Arabidopsis thaliana; conditions: 1 mM L-serine, 0.1 mM acetyl-CoA, 50 mM Tris-HCl pH 8.0, room temperature; feedback inhibition

`N[C@@H](CS)C(=O)O` [L-Cys] was tested, and the IC50 [1] was > 100 µM, the IC50 [2] was > 100 µM and the IC50 [3] was 3.3 µM. The IC50 [4] was 83.9 µM, the IC50 [5] was > 100 µM and the IC50 [6] was 17.7 µM. For the same compound, the IC50 [7] was > 100 µM, the IC50 [8] was > 100 µM and the IC50 [9] was 3.4 µM.
